Each structure is given as a SMILES string.

A word on the IC50: it is the concentration at which inhibition is half-maximal. The term inhibition denotes the share of the control response that was lost under treatment. A low value points to a weak effect.

Test [1] has as its system HeLa (HER2-negative cervical cancer cell line). Briefly: antiproliferative effect, HeLa. To be noted: Homo sapiens, 72 hours. The class given is cell-based. How it is done: (§1) The antiproliferative effects were measured after treating Compounds 1 to 22 for 72 hours on HCT15 (HER2-positive colorectal cancer cell line), NCI-N87 (HER2-positive gastric cancer cell line), T47D (HER2-negative breast cancer cell line), and HeLa (HER2-negative cervical cancer cell line). As a result, strong antiproliferative effects were generally observed in the NCI-N87 cell line (Table 2).
(§2) The antiproliferative effects of the candidate compound, resulting from HER2 inhibition, were evaluated. Specifically, to confirm the anticancer effects of the candidate compound, cancer cells were seeded at a density of 10^4 cells/well in a 96-well cell culture plate for 20 hours. The cells were starved in serum-free media for 4 hours, followed by replacement with media containing the compound at specified concentrations. The cells were then incubated for 72 hours under conditions of 5% CO2 at 37 °C. Cell viability was determined by adding 5 μL of EZ-CytoX to each well and measuring absorbance at 450 nm. The measurements were performed using an ELISA Microplate Reader (VersaMax, Molecular Devices).

Test [2] has as its system T47D (HER2-negative breast cancer cell line). Briefly: antiproliferative effect, T47D. The format is cell-based. The settings on record: Homo sapiens, 72 hours. How it is done:
as §1, §2

In test [3] the target is T1, ELF3-MED23 protein-protein interaction (Homo sapiens, UniProt Q9ULK4).
T1 construct: followed by the addition of either the candidate compound or MED23 protein constructs; endogenous in cells; host or cells: 293T kidney cells (MED23 endogenous; GAL4-ELF3 transfected)
T1 sequence (Q9ULK4 1-1368): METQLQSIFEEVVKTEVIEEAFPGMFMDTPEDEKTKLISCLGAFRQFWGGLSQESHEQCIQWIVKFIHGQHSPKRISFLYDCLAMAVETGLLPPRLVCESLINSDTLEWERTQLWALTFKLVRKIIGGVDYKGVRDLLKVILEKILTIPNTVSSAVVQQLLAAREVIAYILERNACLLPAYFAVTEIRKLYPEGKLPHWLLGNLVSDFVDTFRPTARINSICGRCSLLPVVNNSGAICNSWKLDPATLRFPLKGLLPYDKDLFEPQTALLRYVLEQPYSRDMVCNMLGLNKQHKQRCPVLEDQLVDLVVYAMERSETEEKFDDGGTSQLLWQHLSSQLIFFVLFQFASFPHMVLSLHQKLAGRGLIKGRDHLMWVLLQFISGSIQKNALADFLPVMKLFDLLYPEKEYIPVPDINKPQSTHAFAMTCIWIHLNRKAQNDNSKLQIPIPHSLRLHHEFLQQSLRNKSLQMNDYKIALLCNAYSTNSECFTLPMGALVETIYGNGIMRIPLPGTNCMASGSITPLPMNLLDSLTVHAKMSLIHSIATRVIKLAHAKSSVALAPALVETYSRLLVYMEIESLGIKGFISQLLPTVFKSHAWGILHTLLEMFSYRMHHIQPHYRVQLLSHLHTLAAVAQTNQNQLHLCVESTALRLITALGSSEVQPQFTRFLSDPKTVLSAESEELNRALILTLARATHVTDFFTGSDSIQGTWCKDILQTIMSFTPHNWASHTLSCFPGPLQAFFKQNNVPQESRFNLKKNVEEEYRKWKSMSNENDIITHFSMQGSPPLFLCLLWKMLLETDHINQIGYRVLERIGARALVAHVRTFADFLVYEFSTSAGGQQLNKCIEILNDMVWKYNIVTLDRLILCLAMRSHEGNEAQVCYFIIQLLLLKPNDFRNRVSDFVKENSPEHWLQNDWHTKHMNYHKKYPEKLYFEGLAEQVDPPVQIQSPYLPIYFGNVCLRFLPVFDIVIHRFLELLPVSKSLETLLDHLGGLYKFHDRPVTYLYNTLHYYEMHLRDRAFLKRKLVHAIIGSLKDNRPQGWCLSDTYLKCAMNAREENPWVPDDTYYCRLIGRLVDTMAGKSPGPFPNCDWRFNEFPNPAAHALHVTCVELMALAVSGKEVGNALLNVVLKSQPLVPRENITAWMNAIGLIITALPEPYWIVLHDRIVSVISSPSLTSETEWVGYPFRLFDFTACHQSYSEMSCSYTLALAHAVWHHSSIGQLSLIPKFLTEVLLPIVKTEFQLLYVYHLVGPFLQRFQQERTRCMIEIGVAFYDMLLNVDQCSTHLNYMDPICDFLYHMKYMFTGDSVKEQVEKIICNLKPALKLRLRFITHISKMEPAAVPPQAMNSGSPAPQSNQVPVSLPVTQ
In words: SEAP reporter assay, ELF3-MED23 PPI inhibition (293T kidney cells). The class given is cell-based. To be noted: HEK-293T; 10 μM. Here is the method: To verify whether the D400 and H449 residues play a critical role in the ELF3-MED23 protein-protein interaction, a SEAP assay was performed. Specifically, 293T kidney cells were seeded at a density of 5×10^3 cells/well in a 96-well microplate (SPL, Korea) and cultured overnight. Subsequently, the cells were co-transfected with 100 ng of each plasmid using transfection-optimized medium (Welgene, Korea). The plasmids used included the SEAP reporter gene (pG5IL2SX) and GAL4-ELF3 expression vector (pBJ GAL4-ELF3). For transfection, the cells were incubated with WelFectQ (Welgene, Korea) for 3 hours, followed by the addition of either the candidate compound or MED23 protein constructs (pcDNA MED23^WT, K397A, D400A, H449G, and D400A/H449G). The treated cells were incubated for 12 hours. The candidate compound was added in an incubator at 5% CO2 and 37 °C, and the plate was incubated at 65 °C for 3 hours to inactivate all enzymes except SEAP (Secreted Alkaline Phosphatase). A mixture comprising 100 μL of substrate solution prepared with 1.19 μL of 0.1 M 4-methylumbelliferyl phosphate (Sigma, USA), 25 μL of inactivated medium, and 75 μL of double-distilled water was added, followed by the addition of 98.81 μL of 2 M diethanolamine (pH 10, Sigma, USA). The plate was incubated overnight at 37 °C. Subsequently, the fluorescence intensity was measured using a fluorometer (SPECTRAmax […], Molecular Devices, USA) at an excitation wavelength of 360 nm and an emission wavelength of 440 nm.
To further elaborate on the above findings, small molecule compounds that could affect the ELF3-MED23 PPI were designed and synthesized. Specifically, non-essential side chains were removed from gefitnib, and compounds were designed to include both hydrogen bond donors and acceptors for the D400 and H449 residues of MED23, respectively (FIG. 4A). Specifically, chalcones and pyrazolines were selected as core scaffolds, and 25 compounds (11 chalcones and 14 pyrazoline-based compounds) were prepared. The ELF3-MED23 PPI inhibitory activity of all prepared compounds was measured using a SEAP assay.
For orientation: Reporter assays use an easily measured gene product as a stand-in for the process of interest.

Test [4] deals with MED23 wild-type (FLAG-tagged) (Homo sapiens, UniProt Q9ULK4). Briefly: LC-MS/MS protein-small molecule interaction, wild-type MED23. The format is binding. To be noted: internal standard. Here is the method:
HEK293 cells were seeded in a […] and incubated until they reached 70-80% confluency. The cells were transfected with p3Xflag-myc-CMV26-MED23^WT and p3Xflag-myc-CMV26-MED23^D400A/H449G plasmids for 24 hours, followed by lysis to obtain protein extracts. To isolate the candidate compound (YK1) bound to MED23, total lysates were incubated with YK1 for 4 hours and subsequently subjected to pulldown using FLAG-agarose beads (Sigma Aldrich, USA). The precipitated beads were washed at least three times to completely remove unbound compounds. To separate the candidate compound from the precipitated MED23, 50 μL of the sample was extracted with 1 mL of acetonitrile and centrifuged at 13,000 rpm at 4 °C for 10 minutes. The supernatant (1,000 μL) from each sample was transferred to a new tube and dried under nitrogen gas at 37 °C. For YK1 analysis, the residue was dissolved in 50 μL of ACN and vortexed for 10 minutes. […] The mixture was then extracted with 450 μL of ACN by ultrasonic treatment and vortex mixing. The candidate compound bound to MED23 was finally analyzed using an Agilent 6460 triple quadrupole mass spectrometer (Agilent Technologies, USA).

The test system of test [5] is NCI-N87 (HER2-positive gastric cancer cell line). Briefly: antiproliferative effect, NCI-N87. The format is cell-based. To be noted: Homo sapiens, NCI-N87; 72 hours; HER2-positive. How it is done:
as §1, §2

Test [6] deals with HCT15 (HER2-positive colorectal cancer cell line). Briefly: antiproliferative effect, HCT15. The class given is cell-based. The settings on record: Homo sapiens, HCT-15, 72 hours. How it is done:
as §1, §2

`COc1ccc(C2CC(c3ccccc3O)=NN2C(C)=O)c2ccccc12` (stereo not drawn) [Compound 18, 1-[3-(2-Hydroxyphenyl)-5-(4-methoxynaphthalen-1-yl)-4,5-dihydropyrazol-1-yl]-ethanone]: the IC50 in test [1] is 6.69 ± 0.4 µM; in test [2] it was 29.28 ± 0.27 µM; in test [5], more than 50 µM; in test [6], 19.7 ± 0.05 µM. This molecule also displayed an inhibition at 10 µM in test [3] of 0%. In addition, the “binding affinity to MED23 relative to candidate compound” value in test [4] is on record as “lower binding affinity to MED23”.

For the origin of these results see patent publication US20260373119A1, “NOVEL COMPOUND, AND COMPOSITION FOR PREVENTING OR TREATING HER2-POSITIVE CANCER, COMPRISING SAME” (EWHA UNIVERSITY - INDUSTRY COLLABORATION FOUNDATION, priority 2022, published 2026).
